Reference: ChEMBL document CHEMBL1147376, “Isolation and structure elucidation of 34-sulfatobastadin 13, an inhibitor of the endothelin A receptor, from a marine sponge of the genus Ianthella” (J Nat Prod, 1993)
Converted amounts (≈) assume the structure as drawn. The source made the active and inactive calls. The rule behind the calls is not given here.

Columns and labels:
Endothelin-1 receptor = target: T1, Endothelin-1 receptor (Sus scrofa, UniProt Q29010); assay: Displacement of [125]ET1 from ETA receptor in pig thoracic aorta
T1 sequence (Q29010 whole entry): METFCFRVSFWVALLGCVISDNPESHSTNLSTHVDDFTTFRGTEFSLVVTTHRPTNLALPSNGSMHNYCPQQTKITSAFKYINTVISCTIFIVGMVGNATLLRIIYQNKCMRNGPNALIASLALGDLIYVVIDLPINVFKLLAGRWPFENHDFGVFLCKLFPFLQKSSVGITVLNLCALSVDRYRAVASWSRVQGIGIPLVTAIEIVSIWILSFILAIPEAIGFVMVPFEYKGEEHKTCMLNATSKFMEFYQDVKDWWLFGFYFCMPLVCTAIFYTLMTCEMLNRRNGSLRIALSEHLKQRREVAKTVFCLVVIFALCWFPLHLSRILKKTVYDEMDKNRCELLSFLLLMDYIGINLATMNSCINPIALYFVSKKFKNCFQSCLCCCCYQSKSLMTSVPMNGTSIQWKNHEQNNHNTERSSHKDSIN

Bacillus subtilis [1] = assay: Antibacterial activity against Bacillus subtilis ATCC 6633 at 50 ug/mL after 18 to 24 hrs by twofold dilution test; format: functional, organism-based
[2] = target: T2, Endothelin receptor type B (Rattus norvegicus) (UniProt P21451); assay: Displacement of [125]ET3 from ETB receptor in Sprague-Dawley rat cerebellum at 70 uM
T2 sequence (whole entry): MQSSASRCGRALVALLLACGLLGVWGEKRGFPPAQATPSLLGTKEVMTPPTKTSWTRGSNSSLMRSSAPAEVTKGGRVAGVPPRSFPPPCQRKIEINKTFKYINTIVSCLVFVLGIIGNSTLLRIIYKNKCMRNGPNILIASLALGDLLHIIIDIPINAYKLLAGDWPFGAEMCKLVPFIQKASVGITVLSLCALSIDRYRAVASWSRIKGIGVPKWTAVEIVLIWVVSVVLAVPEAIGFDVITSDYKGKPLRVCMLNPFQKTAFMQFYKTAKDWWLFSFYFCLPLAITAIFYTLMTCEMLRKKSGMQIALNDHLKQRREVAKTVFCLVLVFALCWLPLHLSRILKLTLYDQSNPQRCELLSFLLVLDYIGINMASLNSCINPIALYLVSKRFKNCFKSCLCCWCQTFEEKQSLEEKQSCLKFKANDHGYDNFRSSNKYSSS

[3] = target: T3, Endothelin-1 receptor (Sus scrofa) (UniProt Q29010); assay: Displacement of [125]ET1 from ETA receptor in pig thoracic aorta at 70 uM; format: tissue-based
T3 sequence (whole entry): T1 sequence (Q29010 whole entry)

Bacillus subtilis [4] = assay: Antibacterial activity against Bacillus subtilis ATCC 6633 after 18 to 24 hrs by twofold dilution test; format: functional

IC50 (Endothelin-1 receptor) [µM]	inhibition [2] [%]	inhibition [3] [%]	MIC (Bacillus subtilis [4]) [µg/mL]	SMILES	Activity (Bacillus subtilis [1])
39	27	–	–	O=C1NCCc2ccc(c(Br)c2)Oc2cc(ccc2O)CCNC(=O)/C(=N/O)Cc2cc(Br)c(OS(=O)(=O)O)c(c2)Oc2c(Br)cc(cc2Br)C/C1=N\O	inactive
–	30	32	6 (≈ 6.38 µM)	O=C1NCCc2ccc(c(Br)c2)Oc2cc(ccc2O)CCNC(=O)/C(=N/O)Cc2cc(Br)c(O)c(c2)Oc2c(Br)cc(cc2Br)C/C1=N\O [BASTADIN 13]	–
